The values below come from patent publication US20050004133A1, “Modulators of VR1 receptor” (priority 2003, published 2005).

For this assay, the target named is human VR1 (Homo sapiens, UniProt Q8NER1). The note with it: 50 μM capsazepine; HEK-293 clones expressing hVR1; any concentration of capsaicin.

Molecules are shown by their SMILES.

Chain of human VR1 (Q8NER1 whole entry): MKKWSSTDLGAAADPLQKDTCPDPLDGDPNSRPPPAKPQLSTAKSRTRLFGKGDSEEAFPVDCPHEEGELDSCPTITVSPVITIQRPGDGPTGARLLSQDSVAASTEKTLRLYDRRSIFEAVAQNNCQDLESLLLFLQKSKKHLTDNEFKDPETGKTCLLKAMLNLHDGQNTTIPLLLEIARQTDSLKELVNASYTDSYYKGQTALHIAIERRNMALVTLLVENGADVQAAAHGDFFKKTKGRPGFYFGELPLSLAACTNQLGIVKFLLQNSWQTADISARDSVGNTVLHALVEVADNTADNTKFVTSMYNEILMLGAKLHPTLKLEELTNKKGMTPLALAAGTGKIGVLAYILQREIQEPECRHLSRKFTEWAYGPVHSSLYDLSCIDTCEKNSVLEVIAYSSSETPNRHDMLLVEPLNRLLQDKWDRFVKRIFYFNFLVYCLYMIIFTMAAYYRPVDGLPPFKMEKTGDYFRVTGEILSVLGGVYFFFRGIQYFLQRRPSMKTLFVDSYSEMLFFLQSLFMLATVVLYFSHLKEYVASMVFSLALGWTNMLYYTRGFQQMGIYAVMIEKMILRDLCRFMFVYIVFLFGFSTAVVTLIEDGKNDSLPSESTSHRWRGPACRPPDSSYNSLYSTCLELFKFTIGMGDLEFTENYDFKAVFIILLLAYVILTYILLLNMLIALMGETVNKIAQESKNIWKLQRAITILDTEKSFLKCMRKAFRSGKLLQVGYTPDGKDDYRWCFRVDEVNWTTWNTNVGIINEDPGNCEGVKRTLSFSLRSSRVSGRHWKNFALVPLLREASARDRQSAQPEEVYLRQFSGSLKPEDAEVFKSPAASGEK

For `Oc1cc2c(cc1O)CN(C(=S)NCCc1ccc(Cl)cc1)CCC2` [capsazepine], the “response to capsaicin in the presence of capsazepine” value was “failed to respond to any concentration of capsaicin”.
